Test results taken from patent publication US20240139193A1, “COMBINATION THERAPY OF KRAS INHIBITOR AND SHP2 INHIBITOR FOR TREATMENT OF CANCERS” (AMGEN INC., priority 2019, published 2024).

How the values were obtained:
[1] = test system: KRAS p.G12C models; conditions: preclinical KRAS p.G12C models; cited from earlier work
[2] = test system: KRAS p.G12C tumors; test: Preclinical anti-tumor efficacy of AMG 510; assay type: in vivo
[3] = test system: KRAS p.G12C tumors; test: AMG 510 treatment in immune-competent mice; assay type: in vivo

Row | SMILES | in vivo efficacy [1] | anti-tumor efficacy of chemotherapy and targeted agents in combination [2] | outcome in combination with immune checkpoint inhibition [3]
1 | C=CC(=O)N1CCN(c2ncnc3c(F)c(-c4c(O)cccc4F)c(Cl)cc23)CC1 [ARS-1620] | demonstrates in vivo efficacy |  | 
2 | C=CC(=O)N1CCN(c2nc(=O)n(-c3c(C)ccnc3C(C)C)c3nc(-c4c(O)cccc4F)c(F)cc23)[C@@H](C)C1 [Compound A, 4-((S)-4-acryloyl-2-methylpiperazin-1-yl)-6-fluoro-7-(2-fluoro-6-hydroxyphenyl)-1-(2-isopropyl-4-methylpyridin-3-yl)pyrido[2,3-d]pyrimidin-2(1H)-one] |  | significantly improved | durable cures
